Legend:
TRKA-wt = target: T1, TRKA-wt (Homo sapiens, UniProt P04629); assay: Biochemical kinase assay, TRKA-wt kinase domain; conditions: apparent inhibitory constant, Morrison equation; ATP 2 mM in substrate solution; read-out: TRKA-wt Ki^app
T1 construct: or TRKA-wt (1 nM, BPS Bio, 40280) kinase domains in buffer; purchased BPS Bio 40280
In short: (§1)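 Continuous fluorescence read (λ=485 nm, every 2 min, 120 min, 30° C). Substrate solution held 2 mM ATP and 26 μM AQT0101 (ROS1/ALK) or AQT0104 (TRKA). Kinase solution: ROS1-G2032R 0.5 nM, ROS1-wt 0.6 nM, TRKA 1 nM, ALK double mutant 3 nM. Initial linear rates fed a Morrison-equation fit giving Ki^app.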

ALK L1196M/G1202R = target: T2, ALK L1196M/G1202R (Homo sapiens, UniProt Q9UM73, G1202R/L1196M); assay: Biochemical kinase assay, ALK L1196M/G1202R kinase domain; conditions: apparent inhibitory constant, Morrison equation; ATP 2 mM in substrate solution; read-out: ALK-L1196M-G1202R Ki^app
T2 construct: purchased SignalChem A19-12NG
In short: as §1

[1] = target: T3, Ba/F3 cells EML4-ALK wt (variant 1) (Homo sapiens, UniProt Q9UM73); assay: Ba/F3 cell proliferation assay, EML4-ALK wt (variant 1); type: cell-based; conditions: 72 hours, CellTiter-Glo
T3 construct: echinoderm microtubule-associated protein-like 4 (EML4) gene and the ALK tyrosine kinase domain; host or cells: Ba/F3 (RIKEN), retroviral pMSCV-puro; the other entry of the earlier key: EML4 (Q9HC35, Echinoderm microtubule-associated protein-like 4)
In short: (§2)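 IC50 values come from four-parameter logistic regression of CellTiter-Glo luminescence after 72 h exposure to 3-fold serial dilutions. Cells are Ba/F3 transformed by retroviral fusion-kinase constructs, grown without IL-3 under puromycin, plated at 1,000 per well a day before dosing.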

[2] = target: T4, Ba/F3 cells CD74-ROS1 G2032R (Homo sapiens, UniProt P08922, G2032R); assay: Ba/F3 cell proliferation assay, CD74-ROS1 G2032R; type: cell-based; conditions: 72 hours, CellTiter-Glo
T4 construct: fusion of the C-terminus of ROS1 with the N-terminus of various partner proteins; host or cells: Ba/F3 (RIKEN), retroviral pMSCV-puro; the other entry of the earlier key: CD74 (P04233, HLA class II histocompatibility antigen gamma chain)
In short: (§3)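 Cells seeded 1 day, then treated with 3-fold compound dilutions for 72 h; viability by CellTiter-Glo luminescence. IC50 from percent inhibition by four-parameter logistic fit.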

ALK-wt = target: T5, ALK-wt (Homo sapiens, UniProt Q9UM73); assay: Biochemical kinase assay, ALK-wt kinase domain; conditions: apparent inhibitory constant, Morrison equation; ATP 2 mM in substrate solution; read-out: ALK-wt Ki^app
T5 construct: purchased Carna 08-518
In short: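 Compound in DMSO added first, then substrate solution (ATP 2 mM; AQT0101 or AQT0104, 26 μM; pH 7.5 HEPES, 10 mM MgCl2), then kinase solution with enzyme at 0.5–3 nM depending on construct. Kinetic read every 2 min for 120 min at 30° C; Ki^app by Morrison regression.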

Ba/F3 cells TPM3-TRKA = target: T6, Ba/F3 cells TPM3-TRKA (Homo sapiens, UniProt P04629); assay: Ba/F3 cell proliferation assay, TPM3-TRKA; type: cell-based; conditions: 72 hours, CellTiter-Glo, read-out: TPM3-NTRK1-wt IC50
T6 construct: host or cells: Ba/F3 (RIKEN), retroviral pMSCV-puro; the other entry of the earlier key: TPM3 (P06753, Tropomyosin alpha-3 chain)
In short: as §2

ROS1-G2032R = target: T7, ROS1-G2032R (Homo sapiens, UniProt P08922, G2032R); assay: Biochemical kinase assay, ROS1-G2032R kinase domain; conditions: apparent inhibitory constant, Morrison equation; ATP 2 mM in substrate solution; read-out: ROS1-G2032R Ki^app
T7 construct: purchased SignalChem R14-12BG
In short: (§4)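 Kinetic read: 485 nm, 2-min intervals, 120 min, 30 °C. Substrate mix — ATP 2 mM, AQT0101 26 μM, HEPES 50 mM pH 7.5, MgCl2 10 mM. Output: Ki^app, Morrison equation.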

[3] = target: T8, Ba/F3 cells CD74-ROS1 wild-type (wt) (Homo sapiens, UniProt P08922); assay: Ba/F3 cell proliferation assay, CD74-ROS1 wild-type; type: cell-based; conditions: 72 hours, CellTiter-Glo
T8 construct: fusion of the C-terminus of ROS1 with the N-terminus of various partner proteins; host or cells: Ba/F3 (RIKEN), retroviral pMSCV-puro; the other entry of the earlier key: CD74 (P04233, HLA class II histocompatibility antigen gamma chain)
In short: as §3

[4] = target: T9, Ba/F3 cells EML4-ALK L1196M/G1202R (variant 1) (Homo sapiens, UniProt Q9UM73, G1202R/L1196M); assay: Ba/F3 cell proliferation assay, EML4-ALK L1196M/G1202R (variant 1); type: cell-based; conditions: 72 hours, CellTiter-Glo
T9 construct: echinoderm microtubule-associated protein-like 4 (EML4) gene and the ALK tyrosine kinase domain; host or cells: Ba/F3 (RIKEN), retroviral pMSCV-puro; the other entry of the earlier key: EML4 (Q9HC35, Echinoderm microtubule-associated protein-like 4)
In short: as §2

ROS1-wt = target: T10, ROS1-wt (Homo sapiens, UniProt P08922); assay: Biochemical kinase assay, ROS1-wt kinase domain; conditions: apparent inhibitory constant, Morrison equation; ATP 2 mM in substrate solution; read-out: ROS1-wt Ki^app
T10 construct: purchased Carna 08-163
In short: as §4

[5] = system: TPM3-NTRK1-wt IC50 / primary target IC50 (e.g. CD74-ROS1-wt); assay: TRKA selectivity in Ba/F3 cells (TRKA potency divided by primary target potency); type: cell-based; conditions: for TPM3-NTRK1-wt/CD74-ROS1-G2032R selectivity ratio: TRKA potency / CD74-ROS1-G2032R potency; for TPM3-NTRK1-wt/CD74-ROS1-wt selectivity ratio: TRKA potency / CD74-ROS1-wt potency; for TPM3-NTRK1-wt/EML4-ALK-L1196M-G1202R selectivity ratio: TRKA potency / EML4-ALK-L1196M-G1202R potency; for TPM3-NTRK1-wt/EML4-ALK-wt selectivity ratio: TRKA potency / EML4-ALK-wt potency
Protocol: TRKA selectivity was calculated by dividing a compound's TRKA potency by its primary target potency (e.g. TPM3-NTRK1-wt IC50/CD74-ROS1-wt IC50). Compound selectivity can be interpreted by binning ratio values: bin A for very high selectivity, ratio >30-fold; bin B for high selectivity, ratio >10-fold; bin C for moderate selectivity, ratio ≥1; and bin D for low selectivity, ratio <1. […] (nd=not determined).

T6 sequence (P04629 510-796 limits assumed): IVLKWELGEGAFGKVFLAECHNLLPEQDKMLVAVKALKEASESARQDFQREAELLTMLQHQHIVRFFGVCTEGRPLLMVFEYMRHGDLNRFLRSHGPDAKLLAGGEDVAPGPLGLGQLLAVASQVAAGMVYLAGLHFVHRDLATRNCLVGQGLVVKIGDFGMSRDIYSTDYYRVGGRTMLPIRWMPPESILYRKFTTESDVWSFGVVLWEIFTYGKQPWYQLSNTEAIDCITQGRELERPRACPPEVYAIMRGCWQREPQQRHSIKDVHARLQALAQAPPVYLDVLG
T3 sequence (Q9UM73 with tags, fused parts or gaps): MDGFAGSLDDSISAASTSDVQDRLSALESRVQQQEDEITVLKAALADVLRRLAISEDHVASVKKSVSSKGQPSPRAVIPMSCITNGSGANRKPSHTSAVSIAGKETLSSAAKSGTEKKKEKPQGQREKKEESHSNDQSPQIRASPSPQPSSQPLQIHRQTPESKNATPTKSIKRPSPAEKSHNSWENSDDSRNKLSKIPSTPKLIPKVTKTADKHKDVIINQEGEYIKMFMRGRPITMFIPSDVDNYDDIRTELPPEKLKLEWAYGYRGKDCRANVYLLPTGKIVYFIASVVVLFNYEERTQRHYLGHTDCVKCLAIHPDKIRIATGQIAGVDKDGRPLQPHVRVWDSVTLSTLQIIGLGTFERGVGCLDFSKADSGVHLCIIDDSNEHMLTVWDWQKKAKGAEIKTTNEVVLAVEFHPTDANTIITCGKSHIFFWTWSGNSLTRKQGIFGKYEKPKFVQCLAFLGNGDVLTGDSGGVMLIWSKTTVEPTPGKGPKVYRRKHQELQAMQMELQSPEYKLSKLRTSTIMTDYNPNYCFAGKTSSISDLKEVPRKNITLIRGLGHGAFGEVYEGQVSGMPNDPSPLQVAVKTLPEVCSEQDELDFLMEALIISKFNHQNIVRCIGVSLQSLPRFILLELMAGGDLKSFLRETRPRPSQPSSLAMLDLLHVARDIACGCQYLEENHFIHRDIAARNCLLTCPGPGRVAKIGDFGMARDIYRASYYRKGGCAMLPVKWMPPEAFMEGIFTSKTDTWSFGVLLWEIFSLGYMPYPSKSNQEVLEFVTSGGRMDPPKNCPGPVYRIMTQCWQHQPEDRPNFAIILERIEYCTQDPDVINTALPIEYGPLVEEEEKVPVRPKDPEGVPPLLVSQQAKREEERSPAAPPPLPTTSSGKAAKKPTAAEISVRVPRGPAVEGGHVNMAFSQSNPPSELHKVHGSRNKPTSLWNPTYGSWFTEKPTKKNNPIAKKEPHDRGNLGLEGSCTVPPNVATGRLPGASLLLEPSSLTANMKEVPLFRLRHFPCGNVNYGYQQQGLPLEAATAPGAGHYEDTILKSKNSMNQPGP
T1 sequence (P04629 510-781 limits assumed): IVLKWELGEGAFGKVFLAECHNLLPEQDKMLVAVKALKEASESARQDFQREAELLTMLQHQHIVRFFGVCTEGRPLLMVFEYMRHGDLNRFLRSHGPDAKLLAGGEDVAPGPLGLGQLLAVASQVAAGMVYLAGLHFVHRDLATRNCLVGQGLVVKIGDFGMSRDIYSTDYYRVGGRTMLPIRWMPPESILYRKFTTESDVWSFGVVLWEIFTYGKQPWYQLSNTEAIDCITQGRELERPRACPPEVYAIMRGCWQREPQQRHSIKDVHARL
T5 sequence (Q9UM73 1116-1392 limits assumed): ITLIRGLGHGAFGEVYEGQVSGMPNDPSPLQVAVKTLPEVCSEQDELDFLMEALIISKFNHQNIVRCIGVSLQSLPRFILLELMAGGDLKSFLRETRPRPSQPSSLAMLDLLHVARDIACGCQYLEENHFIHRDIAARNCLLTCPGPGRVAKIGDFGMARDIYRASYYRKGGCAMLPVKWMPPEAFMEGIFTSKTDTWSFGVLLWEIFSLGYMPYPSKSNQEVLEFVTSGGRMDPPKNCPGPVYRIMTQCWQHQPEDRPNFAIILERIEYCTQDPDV
T9 sequence (Q9UM73 with tags, fused parts or gaps L1196M/G1202R): as the sequence (Q9UM73 with tags, fused parts or gaps) above, with L635M, G641R counted along it
T8 sequence (P08922 1883-2347 limits assumed): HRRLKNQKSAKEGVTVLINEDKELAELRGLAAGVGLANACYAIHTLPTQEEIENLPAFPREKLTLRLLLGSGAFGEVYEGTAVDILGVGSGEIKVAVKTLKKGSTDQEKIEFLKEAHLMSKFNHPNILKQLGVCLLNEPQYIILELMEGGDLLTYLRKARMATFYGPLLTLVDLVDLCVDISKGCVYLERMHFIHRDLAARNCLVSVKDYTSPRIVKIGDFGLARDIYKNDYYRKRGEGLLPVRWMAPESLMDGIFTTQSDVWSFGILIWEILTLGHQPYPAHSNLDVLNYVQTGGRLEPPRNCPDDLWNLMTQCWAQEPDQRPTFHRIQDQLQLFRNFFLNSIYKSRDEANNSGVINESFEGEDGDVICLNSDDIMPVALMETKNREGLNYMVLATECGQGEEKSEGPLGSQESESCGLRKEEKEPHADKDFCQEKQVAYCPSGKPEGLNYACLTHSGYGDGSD
T2 sequence (Q9UM73 1116-1392 L1196M/G1202R limits assumed): as the sequence (Q9UM73 1116-1392 limits assumed) above, with L81M, G87R counted along it
T4 sequence (P08922 1883-2347 G2032R limits assumed): as the sequence (P08922 1883-2347 limits assumed) above, with G150R counted along it
T10 sequence (P08922 1945-2222 limits assumed): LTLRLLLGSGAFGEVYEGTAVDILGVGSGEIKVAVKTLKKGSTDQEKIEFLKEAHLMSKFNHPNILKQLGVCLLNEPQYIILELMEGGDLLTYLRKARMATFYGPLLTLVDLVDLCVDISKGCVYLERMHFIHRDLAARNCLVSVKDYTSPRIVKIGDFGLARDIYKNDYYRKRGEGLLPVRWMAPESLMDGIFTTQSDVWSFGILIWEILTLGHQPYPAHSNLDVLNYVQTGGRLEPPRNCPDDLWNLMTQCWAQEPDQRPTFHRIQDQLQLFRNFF
T7 sequence (P08922 1945-2222 G2032R limits assumed): as the sequence (P08922 1945-2222 limits assumed) above, with G88R counted along it

Ki (TRKA-wt) [nM] | Ki (ALK L1196M/G1202R) [nM] | IC50 [1] [nM] | IC50 [2] [nM] | Ki (ALK-wt) [nM] | IC50 (Ba/F3 cells TPM3-TRKA) [nM] | Ki (ROS1-G2032R) [nM] | IC50 [3] [nM] | IC50 [4] [nM] | Ki (ROS1-wt) [nM] | Structure (SMILES) | TPM3-NTRK1-wt/CD74-ROS1-G2032R selectivity ratio [5] | TPM3-NTRK1-wt/CD74-ROS1-wt selectivity ratio [5] | TPM3-NTRK1-wt/EML4-ALK-L1196M-G1202R selectivity ratio [5] | TPM3-NTRK1-wt/EML4-ALK-wt selectivity ratio [5]
> 500 | < 50 | 50 to 500 | 0.1 to 50 | < 50 | > 500 | 50 to 500 | 0.1 to 50 | 50 to 500 | < 50 | Cc1nn(CC2CC2)c2c1Cc1nn(C)nc1-c1ccc(F)cc1COc1cc-2cnc1N [Example 71, 3-(cyclopropylmethyl)-16-fluoro-5,10-dimethyl-20-oxa-3,4,9,10,11,23-hexaazapentacyclo[19.3.1.0^2,^6.0^8,^12.0^13,^18]pentacosa-1(24),2(6),4,8,11,13,15,17,21(25),22-decaen-22-amine] | A (bin A for very high selectivity, ratio >30-fold) | A (bin A for very high selectivity, ratio >30-fold) | B (bin B for high selectivity, ratio >10-fold) | A (bin A for very high selectivity, ratio >30-fold)
50 to 500 | < 50 | 0.1 to 50 | 0.1 to 50 | < 50 | 50 to 500 | < 50 | 0.1 to 50 | 0.1 to 50 | < 50 | C[C@H]1Oc2cc(cnc2N)-c2c(cnn2CC2CC2)Cc2ncc(F)cc2-c2ccc(F)cc21 [Example 72, (20R)-3-(cyclopropylmethyl)-11,17-difluoro-20-methyl-21-oxa-3,4,9,24-tetraazapentacyclo[20.3.1.0^2,^6.0^8,^13.0^14,^19]hexacosa-1(25),2(6),4,8(13),9,11,14,16,18,22(26),23-undecaen-23-amine] | A (bin A for very high selectivity, ratio >30-fold) | A (bin A for very high selectivity, ratio >30-fold) | A (bin A for very high selectivity, ratio >30-fold) | A (bin A for very high selectivity, ratio >30-fold)
50 to 500 | < 50 | 0.1 to 50 | 0.1 to 50 | < 50 | 50 to 500 | < 50 | 0.1 to 50 | 50 to 500 | < 50 | C[C@H]1Oc2cc(cnc2N)-c2c(cnn2CC(F)F)Cc2ncc(F)cc2-c2ccc(F)cc21 [Example 73, (20R)-3-(2,2difluoroethyl)-11,17-difluoro-20-methyl-21-oxa-3,4.9,24-tetraazapentacyclo[20.3.1.0^2,^6.0^8,^13.0^13,^19]hexacosa-1(25),2(6),4,8(13),9,11,14,16,18,22(26),23-undecaen-23-amine] | A (bin A for very high selectivity, ratio >30-fold) | A (bin A for very high selectivity, ratio >30-fold) | C (bin C for moderate selectivity, ratio ≥1) | A (bin A for very high selectivity, ratio >30-fold)
50 to 500 | < 50 | 0.1 to 50 | 0.1 to 50 | < 50 | 50 to 500 | < 50 | 0.1 to 50 | 0.1 to 50 | < 50 | C[C@H]1Oc2cc(cnc2N)-c2c(cnn2CC2CC2)Cn2nc(Cl)cc2-c2ccc(F)cc21 [Example 74, (19R)-10-chloro-3-(cyclopropylmethyl)-16-fluoro-19-methyl-20-oxa-3,4,8,9,23-pentaazapentacyclo[19.3.1.0^2,^6.0^8,^12.0^13,^18]pentacosa-1(24),2(6),4,9,11,13,15,17,21 (25),22-decaen-22-amine] | A (bin A for very high selectivity, ratio >30-fold) | A (bin A for very high selectivity, ratio >30-fold) | B (bin B for high selectivity, ratio >10-fold) | A (bin A for very high selectivity, ratio >30-fold)
50 to 500 | < 50 | 0.1 to 50 | 0.1 to 50 | < 50 | 50 to 500 | < 50 | 0.1 to 50 | 0.1 to 50 | < 50 | Cc1nc2n(n1)Cc1cnn(CC3CC3)c1-c1cnc(N)c(c1)O[C@H](C)c1cc(F)ccc1-2 [Example 75, (19R)-3-(cyclopropylmethyl)-16-fluoro-10,19-dimethyl-20-oxa-3,4,8,9,11,23-hexaazapentacyclo[19.3.10^2,^6.0^8,^12.0^13,^18]pentacosa-1(24),2(6),4,9,11,13,15,17,21(25),22-decaen-22-amine] | A (bin A for very high selectivity, ratio >30-fold) | A (bin A for very high selectivity, ratio >30-fold) | B (bin B for high selectivity, ratio >10-fold) | A (bin A for very high selectivity, ratio >30-fold)
> 500 | < 50 | 0.1 to 50 | 0.1 to 50 | < 50 | > 500 | < 50 | 0.1 to 50 | 0.1 to 50 | < 50 | Cc1nc2c(o1)-c1ccc(F)cc1[C@@H](C)Oc1cc(cnc1N)-c1c(cnn1CC1CC1)C2 [Example 76, (19R)-3-(cyclopropylmethyl)-16-fluoro-10,19-dimethyl-11,20-dioxa-3,4,9,23-tetraazapentacyclo[19.3.1,0^2,^6.0^8,^12.0^13,^18]pentacosa-1(24),2(6),4,8(12),9,13,15,17,21(25),22-decaen-22-amine] | A (bin A for very high selectivity, ratio >30-fold) | A (bin A for very high selectivity, ratio >30-fold) | A (bin A for very high selectivity, ratio >30-fold) | A (bin A for very high selectivity, ratio >30-fold)
